Reference: patent publication US6762046B2, “Polypeptide having β-fructofuranosidase activity” (Kabushiki Kaisha Hayashibara Seibutsu Kagaku Kenkyujo, priority 1996, dated 2004)

How the values were obtained:
[1] = tested on: polypeptide having β-fructofuranosidase activity; test: Specificity for fructofuranosyl transfer from sucrose to acceptors (TLC); assay type: biochemical, Bacillus sp. V230; design: key: Compared with a reaction mixture of sucrose, “−” means unchanged; +: the size and color of a spot for fructofuranosyl acceptor reduced slightly, and spot for fructofuransyl-transferred product was slightly detected; ++: the size and color of a spot for fructofuranosyl acceptor more reduced and a spot for fructofuransyl transferred product was clearly observed; details: acceptor and sucrose (donor) in equal weight, 10 w/v %, 2 units/g sucrose of polypeptide of Example 2-1, 40° C., pH 5.5, 24 hours
Method: Using as fructofuranosyl acceptors the monosaccharides, oligosaccharides and alcohols in Table 1, the specificity of the present polypeptide for fructofuranosyl transfer was studied: Any one of the fructofuranosyl acceptors in Table 1 and sucrose as a fructofuranosyl donor were mixed in an equal amount by weight, and the mixture was dissolved in water into a 10 w/v % aqueous solution which was then mixed with 2 units/g sucrose, d.s.b., of a polypeptide obtained by the method in Example 2-1, and reacted at 40° C. and pH 5.5 for 24 hours. Thereafter, the reaction mixture was separated by TCL similarly as above, and the plate was colored by spraying 0.5 N phosphate solution containing 0.2 w/v % naphthoresorcinol, and the plate was heated at 110° C. for 5 min to color and detect fructofuranosyl-transferred products.

[2] = tested on: polypeptide having β-fructofuranosidase activity; test: Action of the polypeptide on saccharide substrates (release of fructose, TLC); assay type: biochemical, Bacillus sp. V230; details: 2 w/v % substrate, 2 units/g substrate of polypeptide of Example 2-1, 40° C., pH 5.5, 24 hours
Method: An aqueous solution, containing as a substrate sucrose, raffinose, erlose, stachyose, lactosucrose, xylosylfructoside, maltose, cellobiose, lactose, inulin or levan in a concentration of 2 w/v %, was mixed with 2 units/g substrate, d.s.b., of a polypeptide obtained by the method in Example 2-1 and reacted at 40° C. and pH 5.5 for 24 hours.
An adequate amount of each reaction mixture was spotted on “KIESELGEL 60”, an aluminum plate for thin layer chromatography (TLC) commercialized by Merck & Co., Inc., Rahway, USA, developed at ambient temperature using a developing solvent system of 1-butanol, pyridine and water (=7:3:1 by volume), and dried. When the reaction mixture contained fructose, the plate was colored by spraying 0.5 N phosphate solution containing 0.2 w/v % naphthoresorcinol, and heated at 110° C. for 5 min, while the plate was colored by spraying a mixture solution of 20 w/v % sulfuric acid in methanol and heated at 110° C. for 10 min.

Optimum temperature = assay type: biochemical; details: 10 min, 20 mM acetate buffer pH 6.0
Optimum pH = assay type: biochemical; details: incubated at 40° C. for 10 min in 20 mM buffers
Thermal stability = assay type: physicochemical; details: incubated for 60 min in 50 mM acetate buffer pH 6.0
[3] = β-fructofuranosidase activity assay (reducing power, Somogyi-Nelson's method); assay type: biochemical; details: sucrose substrate, 20 mM acetate buffer pH 6.0 with 5 mM calcium chloride, 40° C., 10 min
Method: The activity of the present β-fructofuranosidase was assayed as follows: Sucrose as a substrate was dissolved in 20 mM acetate buffer (pH 6.0) containing 5 mM calcium chloride to give a concentration of 0.1 w/v %. To 5 ml of the solution was added 0.2 ml of a test sample, and the mixture was incubated at 40° C. for 10 min, followed by suspending the enzymatic reaction by the addition of 0.2 ml of the Somogyl copper solution and assaying the reducing power of the reaction mixture by the Somogyi-Nelson's method. As a control, a control solution, which was preheated at 100° C. for 10 min to inactivate the enzyme, was treated similarly as above. Under the above reaction conditions, one unit β-frustofuranosidase activity is defined as the amount of enzyme or polypeptide which gives a reducing power equal to that of 2 μmole of glucose per minute.

| Molecule | Formation of fructofuranosyl-transferred product [1] | further results |
| --- | --- | --- |
| O=C[C@H](O)[C@@H](O)[C@@H](O)CO [L-Arabinose] | + |  |
| O=C(CO)[C@@H](O)[C@H](O)[C@@H](O)CO [L-Sorbose] | + |  |
| OC[C@H]1O[C@@H](O[C@H]2O[C@H](CO)[C@@H](O)[C@H](O)[C@H]2O)[C@H](O)[C@@H](O)[C@@H]1O [Neotrehalose] | + |  |
| OC[C@H]1O[C@H](O[C@H]2C(O)O[C@H](CO)[C@@H](O)[C@@H]2O)[C@H](O)[C@@H](O)[C@@H]1O (some centres unmarked) [Kojibiose] | + |  |
| OC[C@H]1O[C@H](OC[C@H]2OC(O)[C@H](O)[C@@H](O)[C@@H]2O)[C@H](O)[C@@H](O)[C@@H]1O (some centres unmarked) [Isomaltose] | ++ |  |
| OC[C@H]1O[C@@](CO)(O[C@H]2O[C@H](CO)[C@@H](O[C@H]3O[C@H](CO)[C@@H](O)[C@H](O)[C@H]3O)[C@H](O)[C@H]2O)[C@@H](O)[C@@H]1O [erlose] |  | action on substrate to release fructose [2]: acted on |
| OCCO [Ethylene glycol] | ++ |  |
| OCC(O)CO [Glycerol] | ++ |  |
| O=C[C@@H](O)[C@@H](O)[C@H](O)[C@H](O)CO [D-Mannose] | + |  |
| O=C[C@H](O)[C@@H](O)[C@H](O[C@@H]1O[C@H](CO)[C@@H](O)[C@H](O)[C@H]1O)[C@H](O)CO [Cellobiose] | ++ | action on substrate to release fructose [2]: did not substantially act on |
| levan |  | action on substrate to release fructose [2]: did not substantially act on |
| OC[C@@H](O)[C@H](O)[C@@H](O)CO [D-Xylitol] | ++ |  |
| CO [Methanol] | + |  |
| O=C[C@H](O)[C@@H](O)[C@@H](O)[C@H](O)CO [D-Galactose] | ++ |  |
| OC[C@H]1O[C@H](OC[C@H]2O[C@H](O[C@]3(CO)O[C@H](CO)[C@@H](O)[C@@H]3O)[C@H](O)[C@@H](O)[C@@H]2O)[C@H](O)[C@@H](O)[C@H]1O [Raffinose] | + | action on substrate to release fructose [2]: acted on |
| OC[C@H]1O[C@H](O[C@H]2O[C@H](CO)[C@@H](O)[C@H](O)[C@H]2O)[C@H](O)[C@@H](O)[C@@H]1O [Trehalose] | ++ |  |
| C[C@H](O)[C@H](O)[C@@H](O)[C@@H](O)C=O [L-Rhamnose] | + |  |
| OC[C@H]1O[C@@H](O[C@H]2[C@H](O)[C@@H](O)[C@@H](O[C@]3(CO)O[C@H](CO)[C@@H](O)[C@@H]3O)O[C@@H]2CO)[C@H](O)[C@@H](O)[C@H]1O [lactosucrose] |  | action on substrate to release fructose [2]: acted on |
| OC[C@H]1O[C@@H](O[C@H]2[C@H](O)[C@@H](O)C(O)O[C@@H]2CO)[C@H](O)[C@@H](O)[C@H]1O (some centres unmarked) [Lactose] | ++ | action on substrate to release fructose [2]: did not substantially act on |
| OC[C@H]1O[C@](CO)(O[C@H]2OC[C@@H](O)[C@H](O)[C@H]2O)[C@@H](O)[C@@H]1O [xylosylfructoside] |  | action on substrate to release fructose [2]: acted on |

| Molecule | Formation of fructofuranosyl-transferred product [1] | further results |
| --- | --- | --- |
| OC[C@H]1O[C@H](OC[C@H]2O[C@H](O[C@H]3[C@H](O)[C@@H](O)C(O)O[C@@H]3CO)[C@H](O)[C@@H](O)[C@@H]2O)[C@H](O)[C@@H](O)[C@@H]1O (some centres unmarked) [Panose] | ++ |  |
| CCC(C)O (centres unmarked) [2-Butanol] | − |  |
| CCO [Ethanol] | + |  |
| OC[C@H]1O[C@H](OCC2O[C@@H](O)[C@H](O)[C@@H](O)[C@@H]2O)[C@H](O)[C@@H](O)[C@H]1O (some centres unmarked) [Melibiose] | ++ |  |
| OC[C@H]1O[C@H](OC[C@H]2OC(O)(CO)[C@@H](O)[C@@H]2O)[C@H](O)[C@@H](O)[C@@H]1O (some centres unmarked) [Palatinose] | + |  |
| OC[C@@H](O)[C@@H](O[C@H]1O[C@H](CO)[C@@H](O)[C@H](O)[C@H]1O)[C@H](O)[C@@H](O)CO [Maltitol] | ++ |  |
| CCCCO [1-Butanol] | − |  |
| OC[C@H]1O[C@H](O[C@H]2[C@H](O)[C@@H](O)[C@H](O)O[C@@H]2CO)[C@H](O)[C@@H](O)[C@@H]1O [Maltose] | ++ | action on substrate to release fructose [2]: did not substantially act on |
| O=C[C@H](O)[C@@H](O)[C@H](O)CO [D-Xylose] | ++ |  |
| O=C(CO)[C@@H](O)[C@H](O)[C@H](O)CO [D-Fructose] | + |  |
| O=C(CO)[C@@H](O[C@H]1O[C@H](CO)[C@@H](O)[C@H](O)[C@H]1O)[C@H](O)[C@H](O)CO [Turanose] | + |  |
| OC[C@H]1O[C@@](CO)(O[C@H]2O[C@H](CO)[C@@H](O)[C@H](O)[C@H]2O)[C@@H](O)[C@@H]1O [sucrose] |  | action on substrate to release fructose [2]: acted on |
| Maltotriose | ++ |  |
| CCCO [1-Propanol] | − |  |
| inulin |  | action on substrate to release fructose [2]: did not substantially act on |
| OC[C@@H](O)[C@@H](O)[C@H](O)[C@@H](O)CO [D-Sorbitol] | ++ |  |
| CC(C)O [2-Propanol] | − |  |
| OC[C@H]1O[C@H](OC[C@H]2O[C@H](OC[C@H]3O[C@H](O[C@]4(CO)O[C@H](CO)[C@@H](O)[C@@H]4O)[C@H](O)[C@@H](O)[C@@H]3O)[C@H](O)[C@@H](O)[C@H]2O)[C@H](O)[C@@H](O)[C@H]1O [stachyose] |  | action on substrate to release fructose [2]: acted on |
| polypeptide in Example 2-1: polypeptide with β-fructofuranosidase activity produced by transformant BBF4 (Escherichia coli), containing the amino acid sequence of SEQ ID NO:3 (protein) MNSGDYKEDYGFAHITRADMLKIPGQQNSPQFKVPQFNASAIKNIDSAKGYDKSGNLIDLDVWDSWPLQNADGTAANYHGYHIVSALAGDPKNSDDTPLHLFYQKVGDTSIDSWKNAGRVFEDMDKFVPNDPYLKYQTQEWSGSATLTKDGQVRLFYTDYSGNPEDGGTGAGNQIISTAQVNLSQPDAATLKVDGVSDHKSVFDGGDGTVYQNIQQFIDEGKWISGDNHTLRDPHYVEDKGHKYLVFEANTGTTDGYQGDQSFNNKAYYGGSDVFFQNEKNKLLQSPKKQIASLANGALGIVELADDYTVKSVMKPLVASNTVADEVERANIFKMNNKWYLFTDSRGSKMTSDGINDKDVYMLGPGGDSLNGPHNPINETGLVLNMNLDPADLTHTYSHCGIPHPEGNNVVLTSYMTNRGFYPEHHSHLRDKLGVNIKGSDTSGGENSSGQGQFP |  | optimum temperature (Optimum temperature; in the absence of calcium ion): ~45 °C; optimum temperature (Optimum temperature; in the presence of 5 mM calcium ion): about 50 °C; optimum pH (Optimum pH): 5.5-6.0; thermal stability (stable up to temperature) (Thermal stability): ≤ 45 °C; specific activity (β-fructofuranosidase) [3]: 205 units/mg protein |
